Reference: patent US8617906B2, “Identification and screening of triptolide target molecules” (priority 2004, dated 2013)

Columns and labels:
dopaminergic neurons = conditions: cited from earlier work
microglia = conditions: cited from earlier work
[1] = molecular target: T1, Eukaryotic Translation Elongation Factor 2 (EEF2) (PG786) (Homo sapiens, UniProt P13639); assay: Isolation of proteins binding 3H-triptolide in Jurkat cells; conditions: 3H-labeled Jurkat cell extract
T1 construct: endogenous in cells; host or cells: Jurkat
Procedure: (§1) Triptolide target molecules were isolated and identified by purification and identification of molecules that bind ^3H-triptolide. Jurkat cells from expanding cultures were labeled with ^3H-triptolide by cultivation at 37° C. with 5% CO2 for a period of time between a few hours and overnight (usually 6-7 hours) and harvested by centrifugation and washing in ice-cold phosphate buffered saline. The cells (usually 1-3×10^6/ml) were generally labeled with ^3H-triptolide to a final concentration of 35 nM (100 μCi/200 ml of medium). Collected cell pellets were pooled, and the cells were either extracted and subjected to separation and purification at that time, or were frozen and stored at −20° C. as pellets for extraction and investigation at a later time.
(§2) The cells were extracted with M-per buffer (Pierce) and homogenized in presence of a protease inhibitor cocktail, sometimes including other reagents such as deoxyribonuclease (DNase). […] When the extracts components were found not to be sufficiently purified, enriched or reduced in number, 2D gel electrophoresis was employed, followed by fluorography for ^3H-associated radioactivity detection, and MALDI/MS of the corresponding peptides (after proteolysis) and peptide fingerprinting. […]

[2] = system: Phosphatidyl Inositol 3 Kinase—Class II (PG776); assay: as above; parameters: species or system human; conditions: 3H-labeled Jurkat cell extract
Procedure: as §1, §2

p53 pathway = conditions: cited from earlier work
[3] = molecular target: T2, Thioredoxin Reductase (PG774) (Homo sapiens, UniProt Q16881); assay: Isolation of proteins binding 3H-triptolide in Jurkat cells; conditions: 3H-labeled compound incubated with Jurkat cells
T2 construct: endogenous in cells; host or cells: Jurkat
Procedure: as §1, §2

[4] = molecular target: T3, Protein Disulfide Isomerase (PG775) (Homo sapiens, UniProt P07237); assay: as above; conditions: 3H-labeled compound incubated with Jurkat cells
T3 construct: endogenous in cells; host or cells: Jurkat
Procedure: as §1, §2

[5] = molecular target: T4, Hypothetical Protein—GI 7705346 (PG790) (Homo sapiens, UniProt Q9Y4R8); assay: as above; conditions: 3H-labeled Jurkat cell extract
T4 construct: Jurkat cells from expanding cultures were labeled with; endogenous in cells; host or cells: Jurkat
Procedure: as §1, §2

PC12 cells = conditions: cited from earlier work
Vimentin (PG778) = molecular target: T5, Vimentin (PG778) (Homo sapiens, UniProt P08670); assay: Isolation of proteins binding 3H-triptolide in Jurkat cells; conditions: 3H-labeled Jurkat cell extract
T5 construct: endogenous in cells; host or cells: Jurkat
Procedure: as §1, §2

IL-2 = conditions: cited from earlier work

T3 sequence (P07237 18-508): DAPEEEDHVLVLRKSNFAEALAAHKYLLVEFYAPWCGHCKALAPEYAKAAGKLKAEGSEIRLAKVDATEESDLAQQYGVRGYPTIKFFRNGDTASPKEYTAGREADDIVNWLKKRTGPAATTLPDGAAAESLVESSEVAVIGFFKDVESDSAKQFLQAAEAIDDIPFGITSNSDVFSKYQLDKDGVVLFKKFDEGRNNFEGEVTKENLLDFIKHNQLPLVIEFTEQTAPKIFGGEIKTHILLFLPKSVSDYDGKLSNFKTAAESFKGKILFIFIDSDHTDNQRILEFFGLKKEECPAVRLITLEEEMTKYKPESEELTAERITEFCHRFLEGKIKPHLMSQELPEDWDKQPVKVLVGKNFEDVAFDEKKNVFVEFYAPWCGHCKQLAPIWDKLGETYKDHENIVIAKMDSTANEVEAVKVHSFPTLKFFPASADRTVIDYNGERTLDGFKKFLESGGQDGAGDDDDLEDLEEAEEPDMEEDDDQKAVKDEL
T5 sequence (P08670 whole entry): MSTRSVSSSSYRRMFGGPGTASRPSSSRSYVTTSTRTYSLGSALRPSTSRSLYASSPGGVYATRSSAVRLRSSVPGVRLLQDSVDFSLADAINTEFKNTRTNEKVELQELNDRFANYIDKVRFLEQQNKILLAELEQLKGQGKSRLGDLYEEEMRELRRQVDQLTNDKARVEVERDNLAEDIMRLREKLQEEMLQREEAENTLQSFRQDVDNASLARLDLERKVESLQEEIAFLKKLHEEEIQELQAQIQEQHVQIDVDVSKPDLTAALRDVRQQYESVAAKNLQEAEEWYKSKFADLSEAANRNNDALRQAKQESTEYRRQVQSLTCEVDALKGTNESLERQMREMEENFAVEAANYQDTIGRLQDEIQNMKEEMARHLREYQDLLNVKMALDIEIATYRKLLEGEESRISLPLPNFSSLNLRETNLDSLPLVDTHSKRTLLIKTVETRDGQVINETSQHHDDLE
T2 sequence (Q16881 151-649 limits assumed): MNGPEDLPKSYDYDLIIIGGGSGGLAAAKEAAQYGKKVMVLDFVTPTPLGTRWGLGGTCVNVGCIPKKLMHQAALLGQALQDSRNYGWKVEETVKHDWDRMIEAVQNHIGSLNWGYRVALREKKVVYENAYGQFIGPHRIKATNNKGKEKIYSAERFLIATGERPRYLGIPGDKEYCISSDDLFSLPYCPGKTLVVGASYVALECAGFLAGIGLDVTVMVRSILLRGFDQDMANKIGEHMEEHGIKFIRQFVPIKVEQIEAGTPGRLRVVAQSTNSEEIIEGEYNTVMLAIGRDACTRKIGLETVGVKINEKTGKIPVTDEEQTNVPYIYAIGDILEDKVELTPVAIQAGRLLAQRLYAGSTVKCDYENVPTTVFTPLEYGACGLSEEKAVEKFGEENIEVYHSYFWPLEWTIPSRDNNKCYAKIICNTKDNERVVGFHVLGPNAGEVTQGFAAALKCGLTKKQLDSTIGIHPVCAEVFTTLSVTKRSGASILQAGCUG
T4 sequence (Q9Y4R8 whole entry): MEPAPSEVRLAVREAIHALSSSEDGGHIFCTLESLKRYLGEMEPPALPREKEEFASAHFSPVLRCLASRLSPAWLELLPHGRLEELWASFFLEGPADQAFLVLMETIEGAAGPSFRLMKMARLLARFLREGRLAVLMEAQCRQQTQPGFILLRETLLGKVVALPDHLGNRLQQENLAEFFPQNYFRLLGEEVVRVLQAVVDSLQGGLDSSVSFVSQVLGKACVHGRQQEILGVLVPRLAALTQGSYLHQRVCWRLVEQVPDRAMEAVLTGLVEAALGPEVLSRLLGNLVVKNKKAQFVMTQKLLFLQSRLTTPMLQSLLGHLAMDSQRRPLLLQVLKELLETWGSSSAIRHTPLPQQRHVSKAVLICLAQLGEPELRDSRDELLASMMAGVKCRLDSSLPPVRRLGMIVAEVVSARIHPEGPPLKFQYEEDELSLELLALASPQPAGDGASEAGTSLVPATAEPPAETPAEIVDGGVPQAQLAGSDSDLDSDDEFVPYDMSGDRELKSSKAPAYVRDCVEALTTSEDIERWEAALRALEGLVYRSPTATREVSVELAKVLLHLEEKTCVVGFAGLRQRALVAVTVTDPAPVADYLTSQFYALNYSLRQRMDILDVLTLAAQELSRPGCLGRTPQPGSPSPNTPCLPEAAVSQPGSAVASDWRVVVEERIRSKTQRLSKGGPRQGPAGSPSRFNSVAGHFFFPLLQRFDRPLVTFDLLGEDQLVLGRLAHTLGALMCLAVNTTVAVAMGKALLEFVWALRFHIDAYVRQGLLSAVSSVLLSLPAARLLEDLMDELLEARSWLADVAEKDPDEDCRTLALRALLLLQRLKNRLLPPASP

SMILES: CC(C)[C@]12O[C@H]1[C@@H]1O[C@]13[C@]1(O[C@H]1C[C@H]1C4=C(CC[C@@]13C)C(=O)OC4)[C@@H]2O [triptolide]
- LPS-induced decrease in 3H-dopamine uptake and loss of tyrosine hydroxylase-positive neurons (dopaminergic neurons): attenuates
- LPS-activated microglial activity (nitrite accumulation, TNF-α and IL-1β release) (microglia): powerful inhibitory influence
- 3H-associated protein identified as triptolide target: EEF2 [1]: identified
- 3H-associated protein identified as triptolide target: PI 3 Kinase Class II [2]: identification
- cell cycle arrest induced by p21 after p53 activation (p53 pathway): inhibiting the cell cycle arrest induced by p21 after p53 activation
- 3H-associated protein identified as triptolide target: Thioredoxin Reductase [3]: identified
- 3H-associated protein identified as triptolide target: Protein Disulfide Isomerase [4]: identified
- 3H-associated protein identified as triptolide target: GI 7705346 [5]: identified
- β-amyloid-induced apoptosis (PC12 cells): markedly inhibit β-amyloid-induced apoptosis
- β-amyloid-induced increase of intracellular Ca2+ concentration (PC12 cells): inhibit the increase of intracellular Ca^2+ concentration induced by β-amyloid
- 3H-associated protein identified as triptolide target: Vimentin (Vimentin (PG778)): identification
- inhibition of IL-2 (IL-2): inhibition of IL-2
